# Legend:
# Format in all cases: in vivo
# [1] = system: fire ants (s. invicta); test: Fire ant bait protection test; settings: 50% (v/v) in ethanol sprayed on peanut butter bait, 4 replicates, terminated after 5 hours
# Procedure: In this study, the repellent effect of racemic menthol propyleneglycol-carbonate was examined by preparing a solution of this chemical in ethanol at concentration of 50% (v/v). The solution was sprayed with a pump spray dispenser ([…] & Associates, Duarte, Calif.) to a bait composed of sugary food (in this case, peanut butter). The control was composed of ethanol alone. This study was conducted in Fort Pierce, Fla. The protection time was measured as the time when the first ant started consuming the bait. […] The experiment was terminated after 5 hours of observation. Each study group was composed of 4 replicates. In the control which was sprayed with ethanol alone, the fire ants (s. invicta) were seen on the bait within 3 minutes after the spray was applied.
# [2] = system: stable fly or dog fly (Stomoxys calcitrans); test: Stable flies landing on sprayed meat bait
# Procedure: To test the effectiveness of racemic menthol propylene glycol carbonate, a 50% solution was prepared in 95% ethanol and sprayed using a standard spray bottle. Stable flies were collected by placing a screened cage containing (Peaceful Valley Farm Supply, Grass Valley, Calif.) bait beside a horse stable one day prior to the test. Approximately 200 stable flies were collected from each cage. The test bait comprising pieces of beef was placed in an aluminum pan at the bottom of the collecting cage. The test was conducted using meat sprayed with 50% racemic menthol propyleneglycol-carbonate solution, with a control composed of meat sprayed with ethanol alone. The test was conducted in duplicate. The number of stable flies landing and feeding on the meat was counted periodically.
# [3] = system: Adult mosquitoes (Culex quinquefasciatus); test: Mosquito chamber test, protection time until first bite on lotion-coated arms of human volunteers; settings: for Protection Time: 5 wt % in lotion base, elbow to fingertips of human volunteers, time to first bite, mean ± SEM, 4 volunteers
# Procedure: Adult mosquitoes (Culex quinquefasciatus) were kept inside a screened chamber measuring 2 ft×2 ft×2 ft at a density of 200 mosquitoes per chamber. The mosquitoes are aged 3 to 10 days after emergence from larvae and were starved for 24 hours prior to each test. Each of the test compounds (supplied as a gift from Symrise GmbH & Co Kg, Holzminden, Germany) was added to a commercial lotion base (Cresto Laboratories, […], Philippines) and thoroughly mixed into the lotion using an electronic mixer. The resulting formulation was applied from the elbow to the tip of the fingers of human volunteers. The coated arms of the volunteers were then inserted, in turn, inside the chamber up to the elbow. The protection time was determined for each formulation as the length of time until a mosquito had taken its first bite, after which the test was terminated. The data in Table 1 show the protection time determined in this manner for the compounds tested.
# [4] = system: milk termite, Coptotermes vastator; test: Inhibition of termite infestation, weight loss of impregnated soft wood
# Procedure: The milk termite, Coptotermes vastator, is a pest found in tropical and sub-tropical areas. To test the efficacy of racemic menthol propyleneglycol-carbonate, this chemical was dissolved in 95% ethanol at concentration of 10% w/w and pieces of pre-weighed soft wood were immersed in the solution for 24 hours. After impregnation, the wood was allowed to dry in air to remove the ethanol which has a lower flash point. The dry wood was reweighed to determine the total amount of racemic menthol propyleneglycol-carbonate absorbed into the wood. The weight of racemic menthol propyleneglycol-carbonate absorbed was 26 milligrams per gram of wood. Controls were prepared using wood impregnated with 95% ethanol alone.
# The wood test samples were placed on top of a fallen jackfruit tree (Artocarpus heterophylla) heavily infested by termites under ambient, natural, outdoor conditions for a period of 2 months. At the end of the test period, the wood samples were cleaned of debris and termites, dried in the sun and weighed. The degree of wood preservation was determined by the amount of weight loss during the test period.
# [5] = system: mosquito biting activity; test: Mosquito chamber protection time of combinations with DEET and citronella product (Natrapel); settings: both at 10% w/w in hydrophilic ointment base, arms of 3 human volunteers
# Procedure: To test the effectiveness of menthol propyleneglycol-carbonate(menthol propyleneglycol-carbonate) in enhancing the effect of the known insect repellent DEET against mosquito biting activity, this study was undertaken by combining racemic menthol propyleneglycol-carbonate with DEET (purchased from Sigma-Aldrich). The two chemicals were added at 10% w/w in an Hydrophilic ointment base (E. Fougera & Co., Melville, N.Y.) and applied on the exposed arms of human volunteers. The treated arms were inserted inside a mosquito chamber and the protection time was determined. […] The recorded data represents the mean and standard error of 3 human volunteers.
# To test the effectiveness of menthol propyleneglycol-carbonate in enhancing the effect of another known mosquito repellent product, an experiment was undertaken in Which menthol propyleneglycol-carbonate was added at a concentration of 10% w/w to a citronella-based product (Natrapel) manufactured by Tender Corporation (Littleton, N.H.).
# [6] = system: red ant (pharaoh ant, Monomorium pharaonis); test: Ant repellent test, impregnated filter paper barrier around table leg; settings: mean ± SEM of 5 tests
# Procedure: The red ant (pharaoh ant, Monomorium pharaonis) was selected for this ant repellent test since it has a worldwide distribution and is known to be a household pest. Red ants are attracted to the smell of food. The attractant in this experiment was a piece of chocolate, which was placed on a tabletop 5 hours before the test. Within 2 hours after being released on the ground around the table, the red ants established a route from the ground up the table legs. At the 5th hour, a filter paper impregnated with racemic menthol propyleneglycol-carbonate at two concentrations was placed around the middle portion of the table leg. The test compound was dissolved in ethanol and impregnated into a pre-weighed, 2 inch by 7 inch piece of filter paper. After complete evaporation of ethanol, the filter paper was weighed and the final weight of the test compound was determined per cm^2 of the filter paper. The control employed was the same filter paper soaked with ethanol only. The time for the first ant to cross the filter paper barrier was determined.
# [7] = system: mosquito; test: Outdoor mosquito tests, protection time on exposed arms of human volunteers; settings: outdoors from 3:00 PM, 3 human volunteers per group, test chemical 10% w/w in ointment base, ± SEM
# Procedure: To validate the efficacy of menthol propyleneglycol-carbonate under ambient conditions in nature, this chemical was mixed in an ointment base at 10% w/w and applied to the exposed arms of human volunteers who remained outdoors during the peak period of mosquito biting, beginning at 3:00 PM. The protection time was recorded and compared with that obtained from human volunteers using a commercially available insect repellent (OFF! Skintastic; 7% DEET) manufactured by SC Johnson & Sons, Inc. (Racine, Wis.). Control ointment consisted of Fougera ointment without any active ingredient. The protection time was determined for 3 human volunteers for each test group.
# [8] = system: mosquitoes; test: Standard mosquito chamber test of halloysite-entrapped and free active in aloe vera cream; settings: 20% w/w in aloe vera cream, forearm, 3 human volunteers; in min
# Procedure: This study was conducted to evaluate the suitability of encapsulation or entrapment as a means of reducing the amount of racemic menthol propyleneglycol-carbonate required to produce a repellent effect and to provide a means of protecting the active material from degradation by other excipients in the formulation or from high temperatures associated with manufacturing, as in the case of impregnation of textile materials. The halloysite clay represents an example of many other suitable encapsulation materials available in the industry and is not intended as a limitation of the scope of this invention.
# Halloysite clay is a naturally derived, nontoxic, biodegradable material typically used in the manufacture of porcelain, bone china and fine china. U.S. Pat. No. 5,651,976 to Price and Gaber describes a new method of controlled release using microtubules made from halloysite clay. […] The halloysite entrapped racemic menthol propyleneglycol-carbonate used in this study was supplied as a gift from Federal Technology Group (Bozeman, Mont.), with a total entrapped active material determined at 17% of the total weight. […] Protection time was measured as the time at which the human subject experienced the first mosquito bite. […]
molecule,measurement,setting,value
CC(O)COC(=O)OC1CC(C)CCC1C(C)C (racemic) [racemic menthol propyleneglycol-carbonate],Protection Time,[1],at least 5 hours
same,Protection Time,[1]; listed as Racemic menthol propyleneglycol-carbonate,>5 h
same,time by which the spray lost its efficacy,[2]; from the initial single application of 50% spray,≤ 9 h
same,time the spray remained very effective,[2]; single application of 50% spray on meat,at least 5 hours
same,Protection Time,[3],283 ± 17 min
same,effectiveness in preventing mosquito bites relative to menthol or isopulegol,"[3]; from Table I protection times, 5 wt % in lotion",almost nine times more effective
same,inhibitory effect on mosquito bite (FIG. 1),[3]; lotion containing various concentrations,dose dependent manner
same,termite consumption of the wood,"[4]; impregnated wood, 2 months",completely prevented from consuming the wood
same,Percent of weight loss,"[4]; soft wood impregnated from 10% w/w ethanol solution (26 mg per gram of wood), 2 months outdoors on termite-infested tree",0.8 ± 0.4%
same,protection time / repellent effect of combination with DEET versus either compound alone (FIG. 3),[5],greater protection time
same,Time to cross barrier,[6]; 15 mg/cm^2 on filter paper,63 ± 18 min
same,Time to cross barrier,[6]; 30 mg/cm^2 on filter paper,760 ± 76 min
same,Protection Time,[7],227 ± 19 min
same,PROTECTION TIME (Mean ± SEM),[8],93 ± 6
"C=C(C)C1CCC(C)CC1O (single isomer, unassigned; (-)) [(−)-isopulegol, 5-methyl-2-(1-methylethenyl) cyclohexanol, reference compound]",Protection Time,[3],56 ± 7 min
"CC1CCC(C(C)C)C(O)C1 (stereo not shown) [1-menthol, 1-5-methyl-2-isopropyl cyclohexanol, reference compound]",Protection Time,[3],30 ± 9 min
"CC1CCC(C(C)C)C(OCC(O)CO)C1 (stereo not shown) [menthoxy-propane-1,2-diol]",Protection Time,[3],68 ± 17 min
CC1CCC(C(C)C)C(OC(=O)OCCCCCCCCCO)C1 (stereo not shown) [menthyl-9-hydroxynonyl-carbonate],Protection Time,[3],79 ± 14 min
isopulegol propyleneglycol-carbonate,Protection Time,[3],152 ± 36 min

# — patent publication US20060270737A1, “Menthol propyleneglycol-carbonate and analogs thereof as insect pest repellents” (priority 2003, published 2006)
